From US5132414A, “Dideoxynucleoside-5'-phosphonoformic acid compounds” (Dana-Farber Cancer Institute, Inc., priority 1990, dated 1992) come the findings set out here.

pIC50: −log10 of the molar value.

The subject of data set [1] is simian immunodeficiency virus (SIV). Description: Inhibition of SIV replication in monkey peripheral blood leukocytes (RT activity). The data set is classed as cell-based. The text has this:
(§1) FIG. 6A is a graph showing results of a test similar to that of FIG. 5A except that monkey peripheral blood leukocytes were used; and
(§2) FIG. 6B is a graph showing inhibition by one embodiment of the invention under the same conditions as in FIG. 5B.
(§3) For biological testing, a stock solution of the free acid of Example 1 was made up in DMSO and dispensed into RPMI 1640 cell growth medium to give the desired range of concentrations. The final DMSO concentration in the medium was <0.1%. These solutions in cell growth medium were used in all of the biological tests described below.
(§4) The activities of AZT and of the compound of Example 1 against simian immunodeficiency virus (SIV) in cultured human lymphoblasts (CEM cells) were assayed; the results are shown in FIGS. 5A and 5B, respectively. The drugs were added to the culture 4 hours before the virus and inhibition was measured at 3 days.

A short description of data set [2]: Inhibition of growth of human peripheral blood leukocytes. The conditions noted are these: at 10^-4 M, H-PBLs, read-out: inhibition of PBL growth. It is filed as cell-based.
Excerpt: FIG. 3B is a graph showing inhibition of growth of human peripheral blood leukocytes;
as §3
(§5) The activities of the compound of Example 1, AZT, and PFA were also examined in cultured human peripheral blood leukocytes (H-PBLs) infected with HIV-1. […] In both PBLs and Jurkat cells, therefore, the antiviral potency of the compound of Example 1 resembled that of AZT, while its low cytotoxicity was more reminiscent of that of PFA.

Data set [3] concerns Rauscher murine leukemia virus (RLV). Kind of data set: Plaque assay: inhibition of plaque formation by Rauscher murine leukemia virus in mouse fibroblast cultures. It is filed as cell-based. The settings on record: for inhibition of plaque formation: added 4 hours before virus, 4 days.
Excerpt: FIG. 4A is a graph showing inhibition of plaque formation by a different retrovirus (a murine leukemia virus) in mouse fibroblast cultures;
as §3
The compound of Example 1 as well as AZT and PFA were also tested in a plaque assay for the ability to inhibit plaque formation in mouse fibroblast cultures by Rauscher murine leukemia virus (RLV), a type C retrovirus; the results are shown in FIG. 4A. Drugs were added to the cultures 4 hours before the virus, and inhibition was measured at 4 days. The cytotoxicity of all the agents to non-infected fibroblasts was also determined and found to be <50% at concentrations of up to 10^-5 M as shown in FIG. 4B. […] When AZT alone was used at a concentration of only 10^-9 M there was no effect, but when AZT and PFA were combined, each at concentrations of 10^-9 M, there was almost 50% inhibition of plaque formation even though the PFA was not used in excess.

Data set [4] relates to HIV-1. Kind of data set: Inhibition of HIV-1 replication in cultured human peripheral blood leukocytes. It is filed as cell-based. The settings on record: Human immunodeficiency virus 1, Leukocyte; H-PBLs; added 4 hours before virus, measured at 4 days; read-out: 50% inhibition of viral replication.
Excerpt: FIG. 3A is a graph showing inhibition of HIV-1 replication in human peripheral blood leukocytes;
as §3, §5

The next data set deals with CEM cells. Description: Inhibition of CEM cell growth. The data set is classed as cell-based, human. The conditions noted are these: for pIC50: Homo sapiens, CCRF-CEM, 72 h, read-out: approximate IC50 for CEM cell growth.
Excerpt: (§6) FIG. 5A is a graph showing inhibition by AZT of retroviral propagation and of cell growth in cultured human lymphoblasts infected with simian immuno-deficiency virus;
(§7) FIG. 5B is a graph showing the results of using one embodiment of the invention in the same test as that of FIG. 5A.
as §3, §4

The subject of data set [5] is HIV-1. Description: Inhibition of HIV-1 replication in Jurkat cells (RT activity), drugs added 4 h before virus (prophylaxis model). It is filed as cell-based. The conditions noted are these: for IC95: 96 h, read-out: concentration needed to achieve the same degree of inhibition (>95% inhibition of RT activity); for pIC50: read-out: 50% inhibitory concentration (IC50), RT activity in culture supernatants. Here is the method:
The final DMSO concentration in the medium was <0.1%. These solutions in cell growth medium were used in all of the biological tests described below.
In a second evaluation, the compound salt of Example 1, AZT, and PFA were compared as inhibitors of HIV-1 replication in Jurkat cells when added to the cultures 4 h before the virus (i.e., in a prophylaxis model). The drugs were present through the length of the experiment (4 days).

Data set [6] can be described thus: Inhibition of Jurkat cell growth. It is filed as cell-based, human. The conditions noted are these: human; at 10^-5 M; Jurkat cells; read-out: growth inhibition of host cells.
Excerpt: (§8) FIG. 2B is a graph showing inhibition of Jurkat cell growth under the same conditions as in FIG. 2A;
as §3
(§9) In a second evaluation, the compound salt of Example 1, AZT, and PFA were compared as inhibitors of HIV-1 replication in Jurkat cells when added to the cultures 4 h before the virus (i.e., in a prophylaxis model). The drugs were present through the length of the experiment (4 days). […] Thus, while there was an approximately four-log TI for AZT in this experiment, the TI for the compound of Example 1 could not actually be estimated because the IC50 for cell growth inhibition, extrapolated from the dose-response curve, was >10^-3 M.

Data set [7] relates to monkey peripheral blood leukocytes (M-PBLs). Kind of data set: Growth inhibition / toxicity to monkey peripheral blood leukocytes. The settings on record: in words. The data set is classed as cell-based.
Excerpt: as §1, §2, §3, §4

In data set [8] the test system is simian immunodeficiency virus (SIV). Description: Inhibition of SIV in cultured human lymphoblasts (CEM cells), RT activity. It is filed as cell-based. The settings on record: CCRF-CEM, added 4 hours before virus, measured at 3 days, read-out: approximate IC50 for inhibition of RT activity in SIV-infected CEM cells.
Excerpt: as §6, §7, §3, §4

Data set [9] in a line: Cytotoxicity in non-infected Jurkat cells, 4 days exposure. It is filed as cell-based. The settings on record: human, up to 10^-4 M, read-out: decrease in cell viability. Here is the method:
as §3
(§10) The compound of Example 1 was tested initially for its ability to inhibit HIV-1 replication in Jurkat cells, a CD4+ human T-lymphocyte line commonly used for this purpose. Reverse transcriptase (RT) activity in the supernatant from the infected cells was used as a measure of viral replication, and the compound was added to the cultures at time zero or 4 h post-infection. Parallel cytotoxicity assays were performed in non-infected Jurkat cells to assess therapeutic selectivity.

In the next data set the test system is Jurkat cells. Description: Inhibition of Jurkat cell growth. The settings on record: Homo sapiens, Jurkat, read-out: IC50 for cell growth inhibition. The data set is classed as cell-based, human.
Excerpt: as §8, §3, §9

Data set [10] deals with HIV-1. Kind of data set: Inhibition of HIV-1 replication in Jurkat cells (RT activity in supernatant), compound added at time zero or 4 h post-infection. It is filed as cell-based. The conditions noted are these: Human immunodeficiency virus 1, compound added at time zero or 4 h post-infection, read-out: 50% inhibition of RT activity relative to non-treated HIV-infected cells. Here is the method:
as §3, §10

For another data set, the target named is T1, HIV-1 RT (Human immunodeficiency virus type 1 group M subtype B, UniProt P04585).
T1 construct: purified HIV-1 RT
Kind of data set: Cell-free assay with purified HIV-1 RT. It is filed as biochemical.
Excerpt: as §3
To examine the question whether RT inhibition by the compound of Example 1 could by itself account for the antiretroviral effect in intact cells, the effect of the compound on RT activity was examined in a cell-free assay with purified HIV-1 RT. An IC50 value (ca. 50 μM) well in excess of the concentration needed to block viral replication was obtained. Therefore, it appears that metabolism is required in the action of the compound of Example 1 or that the compound has one or more targets other than RT in the cell.

Setting [11] is: Human immunodeficiency virus 1, Jurkat.

For the compound `Cc1cn([C@H]2C[C@H](N=[N+]=[N-])[C@@H](CO)O2)c(=O)[nH]c1=O` [AZT, 3'-azidothymidine, reference compound], in [1] (in words), the “concentrations required for inhibition of SIV replication in M-PBLs (versus CEM cells)” value is given as “required higher AZT concentrations”. Besides, the inhibition at 100 µM in [2] stood at 80%. The entries for the “inhibition of plaque formation” value in data set [3] (at 10^-7 M) and in data set [3] (at 10^-9 M) were “Complete inhibition” and “no effect”, respectively. For the same compound, the pIC50 in the data set on HIV-1 [4] was around 8.00; with CEM cells, around 5.70; in the data set on HIV-1 [5] (setting [11]) it was 8.00; in data set [8] it was around 8.30. Besides, the IC95 in the data set with HIV-1 [5] (setting [11]) turned out to be 100 µM. Also, the inhibition at 96 h, 10 µM in data set [6] was in the range of 50 to 60%. For the same compound, the “concentrations required for inhibition of cell growth in M-PBLs (versus CEM cells)” value in [7] is “required higher AZT concentrations”.
As for `CCOC(=O)P(=O)(O)OC[C@H]1O[C@@H](n2cc(C)c(=O)[nH]c2=O)C[C@@H]1N=[N+]=[N-]` [Example 1, 3'-Azido-3'-deoxy-5'-[P-(ethoxycarbonyl)-P-Hydroxyphosphinyl]thymidine], the pIC50 was 7.00 in data set [1] (Simian immunodeficiency virus, Leukocyte, in Primates, M-PBLs, added 4 hours before virus, read-out: 50% inhibition of RT activity (SIV replication)); around 8.00 in the data set with HIV-1 [4]; below 4.00 in the data set with CEM cells; around 8.70 with HIV-1 [5] (setting [11]); below 3.00 in the data set on Jurkat cells; around 6.30 in the data set on HIV-1 [10]. Further, the pIC50 on HIV-1 RT was around 4.30; in data set [8] it was around 8.00. Besides, the inhibition at 100 µM in data set [2] worked out at 20%. The cytotoxicity at 96 h, 100 µM in data set [9] was below 10%. The “inhibition of plaque formation” value in data set [3] (at 10^-5 M) is “almost complete inhibition”; in [3] (at 10^-7 M), “inactive”. In addition, in data set [3] (comparison in words), the “effectiveness in the RLV system relative to AZT or a 1:1 combination of AZT and PFA” value was “less effective than AZT or a 1:1 combination of AZT and PFA”. Further, in the data set on CEM cells (CEM cells, relative to AZT), the “times less toxic to the host cells than AZT” value is given as “at least 200 times”. Besides, in the data set on HIV-1 [5] (Human immunodeficiency virus 1, Jurkat, read-out: inhibition of RT activity), the inhibition at 0.005 µM was above 95%. Moreover, the “increase in potency relative to AZT” value in the data set with HIV-1 [5] (Jurkat cells, HIV-1, IC50 comparison with AZT) is “roughly fivefold”. In addition, the inhibition at 96 h, 10 µM in data set [6] amounted to 20%. In addition, the “toxicity to the host cell relative to AZT” value in [7] is recorded as “considerably lower than with AZT”.
Take `O=C(O)P(=O)(O)O` [PFA, phosphonoformic acid]: the “inhibition of plaque formation” value in data set [3] (until the concentration reached 10^-4 M) is listed as “no appreciable effect”. For the same compound, in the data set with HIV-1 [5] (setting [11]), the IC95 came out at 1000 µM and the pIC50 is 5.00. Moreover, the inhibition at 96 h, 10 µM in data set [6] turned out to be 30%.
